Tested on: 743489-274-T-PDC complex spheroid growth
Assay: Anticancer human tumor 743489-274-T-PDC patient-derived renal cell carcinoma cell line growth inhibition [AhR]
Conditions: for IC50: curve of first compound; for viability, T/C: stronger effect = lower value
Procedure, shortened: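 Spheroids combined tumor cells with HUVEC endothelial cells and human MSCs as stroma. AhR antagonists were paired with standard or investigational drugs, each dosed in half-log steps down from near clinical Cmax, or from 10 microM where Cmax was unknown.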
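Also: spheroids exposed to agents for 7 days before readout.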
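For viability, T/C in this document: 100% = DMSO vehicle control wells.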

Compound: CC(C)c1c(-c2ccccc2)nc2c(C#N)c[nH]n2c1=O + Cc1cncc(-c2nc(NCCc3c[nH]c4ccccc34)c3ncn(C(C)C)c3n2)c1
- IC50 (second compound 0.1 µM): > 10 µM
- IC50 (second compound 0.316 µM): > 10 µM
- IC50 (second compound 1 µM): > 10 µM
- IC50 (second compound 3.16 µM): > 10 µM
- IC50 (second compound 10 µM): > 10 µM
- viability, T/C (second compound 0.1 µM, first compound 0.0316 µM): 101%
- viability, T/C (second compound 0.1 µM, first compound 0.1 µM): 126%
- viability, T/C (second compound 0.1 µM, first compound 0.316 µM): 104%
- viability, T/C (second compound 0.1 µM, first compound 1 µM): 103%
- viability, T/C (second compound 0.1 µM, first compound 3.16 µM): 96.2%
- viability, T/C (second compound 0.1 µM, first compound 10 µM): 104%
- viability, T/C (second compound 0.316 µM, first compound 0.0316 µM): 112%
- viability, T/C (second compound 0.316 µM, first compound 0.1 µM): 104%
- viability, T/C (second compound 0.316 µM, first compound 0.316 µM): 101%
- viability, T/C (second compound 0.316 µM, first compound 1 µM): 107%
- viability, T/C (second compound 0.316 µM, first compound 3.16 µM): 100%
- viability, T/C (second compound 0.316 µM, first compound 10 µM): 96.7%
- viability, T/C (second compound 1 µM, first compound 0.0316 µM): 107%
- viability, T/C (second compound 1 µM, first compound 0.1 µM): 103%
- viability, T/C (second compound 1 µM, first compound 0.316 µM): 111%
- viability, T/C (second compound 1 µM, first compound 1 µM): 96.7%
- viability, T/C (second compound 1 µM, first compound 3.16 µM): 105%
- viability, T/C (second compound 1 µM, first compound 10 µM): 102%
- viability, T/C (second compound 3.16 µM, first compound 0.0316 µM): 114%
- viability, T/C (second compound 3.16 µM, first compound 0.1 µM): 119%
- viability, T/C (second compound 3.16 µM, first compound 0.316 µM): 121%
- viability, T/C (second compound 3.16 µM, first compound 1 µM): 119%
- viability, T/C (second compound 3.16 µM, first compound 3.16 µM): 110%
- viability, T/C (second compound 3.16 µM, first compound 10 µM): 115%
- viability, T/C (second compound 10 µM, first compound 0.0316 µM): 126%
- viability, T/C (second compound 10 µM, first compound 0.1 µM): 141%
- viability, T/C (second compound 10 µM, first compound 0.316 µM): 133%
- viability, T/C (second compound 10 µM, first compound 1 µM): 125%
- viability, T/C (second compound 10 µM, first compound 3.16 µM): 109%
- viability, T/C (second compound 10 µM, first compound 10 µM): 134%

Source: PubChem BioAssay AID1919002 (Molecular Pharmacology Branch, DTP, NCI, 2023)
